Data taken from US10906169B1, “Muscle-powered biological machines” (The Board of Trustees of the University of Illinois, priority 2016, dated 2021).
Entries after “also recorded” stand apart in the source; their conditions may differ.

Experiments:
[1] = test system: MNs in multi-layered tissue rings; assay: Chemical stimulation of motor neurons in multi-layered tissue rings (muscle contraction tracked by video); type: cell-based, mouse; conditions: for frequency of muscle twitching / average displacement: day 9 after co-culture; for effect on glutamate-induced muscle contractions: 25 μM curare added after glutamate stimulation
Protocol: To stimulate motor neurons in tissue rings, glutamate was added to cell culture medium in a bath application of either 200 μM or 400 μM, as noted. Tissues were then transferred to fresh medium. After chemical stimulation, the nicotinic AChR antagonist curare was added to cell culture medium in a bath application of 25 μM. Tissues were then rinsed in PBS and transferred to fresh medium.
Muscle contraction within tissue rings was captured using a digital camera on a stereomicroscope with a capture rate of 5-10 frames s^−1. Image sequences were exported to .avi files. A custom Matlab script was used to calculate x-y displacement of user-specified regions of interest using normalized 2D cross-correlation, as described previously^3.
On day 9 after co-culture, we chemically stimulated MNs by adding glutamate. Multi-layered tissue rings were first subjected to a bath application of 200 μM glutamate in complete neural differentiation medium. Through video recordings, we observed that local muscle contraction began in response to chemical stimulation of MNs (FIG. 16d). When we increased the glutamate concentration from 200 to 400 μM, the frequency of muscle twitching increased from 1.08 to 1.33 contractions sec^−1, while the average displacement decreased from 6.3±0 to 4.4±0.2 μm per twitch (FIG. 16e).

EBs containing MNs = assay: Neurite growth from embryoid bodies on 2D ECM-coated substrates; type: cell-based, mouse
Protocol: 4. Neurite Growth Measurements. After day 9 of differentiation, EBs were plated on either collagen I or Matrigel™ coated dishes in complete neural differentiation medium. […] Live samples were imaged on days 10-14 using an inverted fluorescent microscope for 2D cultures (IX81, Olympus) or a confocal microscope for 3D tissue rings (LSM710, Zeiss). The NeuronJ plug-in (ImageScience) for ImageJ was used to measure neurite growth distances (FIG. 17).
When allowed to adhere to natural ECM substrates such as collagen I13A and Matrigel™ (FIG. 13b and FIG. 19b), EBs containing MNs attached readily and extended neurites across the gels. Neurites grew 417.5±154.8 and 999.1+356.9 μm after 4 days of attachment (propagating at nearly linear rates of 88.6 and 264.8 μm day^−1) on collagen I and Matrigel™ surfaces, respectively (FIG. 13c). Similarly, EBs adhered to (and extended neurites across) the surface of 2D layers of differentiated C2C12s (FIG. 13d and FIG. 19c). After 5 days of co-culture, we identified clusters of post-synaptic acetylcholine receptors (visualized with fluorescently-conjugated α-BTX, which binds to a subunit of AChR) near the termination of neurite extensions on myotubes (FIG. 13e).

N[C@@H](CCC(=O)O)C(=O)O [glutamate, L-glutamic acid]
frequency of contraction ([1]; 200 μM glutamate (FIG. 16e, mean values)): 1.08 contractions/s | frequency of muscle twitching ([1]; 200 μM glutamate bath application): 1.08 contractions sec^−1 | average displacement ([1]; 200 μM glutamate): 6.3±0 μm per twitch | frequency of contraction ([1]; 400 μM glutamate (FIG. 16e, mean values)): 1.33 contractions/s | frequency of muscle twitching ([1]; 400 μM glutamate bath application): 1.33 contractions sec^−1 | average displacement ([1]; 400 μM glutamate): 4.4±0.2 μm per twitch | dependence of contraction frequency on concentration ([1]; chemical stimulation of MNs, 200 and 400 μM glutamate): frequency of contraction increasing with glutamate concentration

(+)-tubocurarine chloride hydrochloride pentahydrate [curare]
frequency of contraction after addition ([1]; 25 μM curare (FIG. 16e)): 0 observed contractions | effect on glutamate-induced muscle contractions [1]: halted the contractions; also recorded: terminated the contractions | effect on glutamate-induced muscle contractions ([1]; listed as tubocurarine chloride (curare)): halted the contractions

collagen I: natural ECM substrate; collagen I-coated dishes from Gibco
rate of neurite propagation (nearly linear) (EBs containing MNs; EBs attached to the coated surface, over 4 days): 88.6 μm day^−1 | neurite growth (EBs containing MNs; after 4 days of attachment of EBs to the coated surface): 417.5±154.8 μm
